The test system of the experiment is Phytophthora infestans. Type of experiment: in vivo. The note with it: tomato plants.
[1] abbreviates: protective, 3 days after inoculation, 12.5 ppm a.i.
The mark [2] stands for this setting: protective, 3 days after inoculation, 0.25 ppm a.i.
The mark [3] stands for this setting: protective, 3 days after inoculation, 0.5 ppm a.i.

Structures can show the parent of a compound that is named as a salt. Where two headings read alike, the source gives them in different places.

As for `OP(O)O` [phosporous acid], the “Efficacy in % found” value under setting [1] came to 33%. Take `O=C(NCc1ncc(C(F)(F)F)cc1Cl)c1c(Cl)cccc1Cl` [fluopicolide]: under setting [2], the “Efficacy in % found” value was 4%.

For the compound `CCCCCCNc1cccc(CON=C(c2ccccc2)c2nnnn2C)n1` [N-hexyl-6-[({[(1-methyl-1H-tetrazol-5-yl)(phenyl)methylene]amino}oxy)-methyl]pyridin-2-amine], the “Efficacy in % found” value worked out at 48% under setting [2] and 63% under setting [3]. For `CC(C)[C@H](NC(=O)O)C(=O)N[C@H](C)c1nc2ccc(F)cc2s1` [benthiavalicarb], the “Efficacy in % found” value under setting [2] turned out to be 16%. Regarding fosetyl-aluminium, under setting [1], the “Efficacy in % found” value stood at 42%.

As for `CCC(C)(NC(=O)c1cc(Cl)c(C)c(Cl)c1)C(=O)CCl` (stereo not drawn) [zoxamide], the “Efficacy in % found” value under setting [2] was found to be 18%. For `[Cl-].[Cu+2].[Cu+2].[OH-].[OH-].[OH-]` [copper oxychloride], the “Efficacy in % found” value under setting [1] worked out at 58%.

Turning to `CCCCCNc1cccc(CON=C(c2ccccc2)c2nnnn2C)n1` [6-[({[(1-methyl-1H-tetrazol-5-yl)(phenyl)methylene]amino}oxy)methyl]-N-pentylpyridin-2-amine], under “protective spray, evaluated 3 days after inoculation, application rate cell empty”, the “Efficacy in % found” value worked out at 69%. Consider `COc1ccc(C(=CC(=O)N2CCOCC2)c2ccc(Cl)cc2)cc1OC` [dimethomorph], for which, under setting [3], the “Efficacy in % found” value is on record as 35%. For the compound `CCCOC(=O)NCCCN(C)C` [propamocarb-HCl], the “Efficacy in % found” value (protective, 3 days after inoculation, 25 ppm a.i.) is listed as 24%.

For `N#Cc1c(Cl)c(Cl)c(Cl)c(C#N)c1Cl` [chlorothalonil], under setting [1], the “Efficacy in % found” value is recorded as 19%.

Source of the values: patent US20110287108A1 (priority 2008, published 2011).
